The compounds below were run against Xanthine dehydrogenase/oxidase (Bos taurus) (UniProt P80457) (assay: Inhibitory activity against Xanthine Oxidase).
Xanthine dehydrogenase/oxidase (Bos taurus), sequence (P80457 whole entry, looked up): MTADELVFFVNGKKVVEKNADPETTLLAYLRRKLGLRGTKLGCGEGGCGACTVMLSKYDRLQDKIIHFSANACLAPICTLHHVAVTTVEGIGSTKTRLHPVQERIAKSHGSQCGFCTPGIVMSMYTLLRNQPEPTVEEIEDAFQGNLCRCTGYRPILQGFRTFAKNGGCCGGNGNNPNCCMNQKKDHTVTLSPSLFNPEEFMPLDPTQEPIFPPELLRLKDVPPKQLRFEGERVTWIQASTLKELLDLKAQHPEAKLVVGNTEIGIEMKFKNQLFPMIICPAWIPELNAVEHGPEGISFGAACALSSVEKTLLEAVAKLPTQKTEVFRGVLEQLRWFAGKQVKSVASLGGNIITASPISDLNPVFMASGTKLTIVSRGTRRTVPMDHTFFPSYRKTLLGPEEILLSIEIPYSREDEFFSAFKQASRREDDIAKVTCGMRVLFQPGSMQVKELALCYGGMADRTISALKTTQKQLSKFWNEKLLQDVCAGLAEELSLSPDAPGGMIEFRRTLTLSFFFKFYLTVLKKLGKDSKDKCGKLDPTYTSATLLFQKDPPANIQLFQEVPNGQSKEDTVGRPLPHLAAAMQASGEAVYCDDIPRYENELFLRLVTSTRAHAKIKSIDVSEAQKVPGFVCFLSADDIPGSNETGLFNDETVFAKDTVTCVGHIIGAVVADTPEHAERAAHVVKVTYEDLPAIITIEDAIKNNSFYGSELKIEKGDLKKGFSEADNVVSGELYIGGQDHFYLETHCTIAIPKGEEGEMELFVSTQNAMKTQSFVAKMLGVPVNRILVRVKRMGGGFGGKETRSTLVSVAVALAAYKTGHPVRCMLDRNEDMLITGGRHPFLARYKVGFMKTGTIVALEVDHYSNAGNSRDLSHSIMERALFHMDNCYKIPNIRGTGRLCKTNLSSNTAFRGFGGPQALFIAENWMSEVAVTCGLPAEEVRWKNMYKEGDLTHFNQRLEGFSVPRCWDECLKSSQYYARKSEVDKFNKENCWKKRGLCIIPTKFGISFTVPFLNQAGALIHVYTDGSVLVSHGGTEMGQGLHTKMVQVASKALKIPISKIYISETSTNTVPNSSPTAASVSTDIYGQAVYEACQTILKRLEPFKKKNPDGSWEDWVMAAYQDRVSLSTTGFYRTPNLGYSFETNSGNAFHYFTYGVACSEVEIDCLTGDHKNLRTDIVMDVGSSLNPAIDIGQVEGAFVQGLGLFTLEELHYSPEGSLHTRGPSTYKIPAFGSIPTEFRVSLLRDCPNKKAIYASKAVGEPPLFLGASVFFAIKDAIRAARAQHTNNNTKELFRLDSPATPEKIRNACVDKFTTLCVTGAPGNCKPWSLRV

Compound	Ki [µM]
Oc1nc2nc(S)nc-2c2n1CCCS2	0.89

Each compound was assayed against T1, Xanthine dehydrogenase/oxidase (Homo sapiens, UniProt P47989) (assay: Inhibitory activity against Xanthine Oxidase; Inactive).
T1 sequence (P47989 whole entry): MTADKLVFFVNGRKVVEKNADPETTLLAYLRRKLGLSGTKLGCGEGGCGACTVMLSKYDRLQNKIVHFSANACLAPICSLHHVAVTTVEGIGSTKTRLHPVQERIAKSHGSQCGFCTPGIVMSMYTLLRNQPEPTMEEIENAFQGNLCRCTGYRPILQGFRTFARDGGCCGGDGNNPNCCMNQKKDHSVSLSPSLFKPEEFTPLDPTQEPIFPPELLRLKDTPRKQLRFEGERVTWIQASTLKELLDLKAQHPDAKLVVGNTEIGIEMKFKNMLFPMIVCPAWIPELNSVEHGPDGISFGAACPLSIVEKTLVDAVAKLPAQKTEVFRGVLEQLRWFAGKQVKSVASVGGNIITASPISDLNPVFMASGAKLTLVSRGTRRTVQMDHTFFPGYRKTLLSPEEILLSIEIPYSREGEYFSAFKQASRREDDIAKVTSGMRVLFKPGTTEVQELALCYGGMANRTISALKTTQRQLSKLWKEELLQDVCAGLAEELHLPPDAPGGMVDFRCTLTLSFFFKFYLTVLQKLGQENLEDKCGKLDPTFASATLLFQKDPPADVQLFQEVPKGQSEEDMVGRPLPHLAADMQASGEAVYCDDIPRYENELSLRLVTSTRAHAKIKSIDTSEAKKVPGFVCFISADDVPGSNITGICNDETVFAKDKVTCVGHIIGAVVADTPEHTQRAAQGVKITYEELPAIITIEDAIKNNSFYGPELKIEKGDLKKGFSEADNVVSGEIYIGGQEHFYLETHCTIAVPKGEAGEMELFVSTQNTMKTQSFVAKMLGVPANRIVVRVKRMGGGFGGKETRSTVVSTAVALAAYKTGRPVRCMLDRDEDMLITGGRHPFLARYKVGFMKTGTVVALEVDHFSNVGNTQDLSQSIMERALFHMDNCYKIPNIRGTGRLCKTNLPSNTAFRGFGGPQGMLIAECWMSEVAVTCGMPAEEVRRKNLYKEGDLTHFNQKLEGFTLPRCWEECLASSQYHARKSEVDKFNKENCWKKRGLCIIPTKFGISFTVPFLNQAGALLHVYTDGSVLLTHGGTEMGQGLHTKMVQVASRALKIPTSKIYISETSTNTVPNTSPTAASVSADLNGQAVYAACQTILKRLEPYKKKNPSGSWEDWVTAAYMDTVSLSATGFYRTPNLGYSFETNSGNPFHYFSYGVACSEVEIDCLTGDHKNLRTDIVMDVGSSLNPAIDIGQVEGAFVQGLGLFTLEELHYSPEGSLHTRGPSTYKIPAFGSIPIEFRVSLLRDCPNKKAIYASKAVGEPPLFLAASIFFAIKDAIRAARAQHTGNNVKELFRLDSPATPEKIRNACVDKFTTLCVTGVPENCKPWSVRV

Compound	IC50	Ki
CCCCC(=O)Nc1nc(O)c2[nH]cnc2n1	Not Active	
CCCCCCSc1nc(N)cc(O)n1	Not Active	
CCCCCC(=O)Nc1nc(O)c2[nH]cnc2n1	Not Active	
CCCCSc1nc(N)cc(O)n1	Not Active	
O=S1(=O)CCCn2c1nc1nc(O)nc-1c2O		Not Active
CCCCCSc1nc(N)cc(O)n1	Not Active	

The compounds below were run against T1, Xanthine dehydrogenase/oxidase (assay: Inhibitory activity against Xanthine Oxidase).

Compound	Ki [µM]	IC50 [µM]
O=c1[nH]c2nc(S(=O)(=O)Cc3ccccc3)[nH]c(=O)c2[nH]1	77.8	
CC1CSc2nc3nc(S)nc-3c(O)n2C1 (stereo not drawn)	> 100	
Oc1c2nc(S)nc-2nc2n1CCCS2	131	
CCCC(=O)Nc1nc2nc[nH]c2c(=O)[nH]1		> 100
Oc1nc2nnnc-2c2n1CCCS2	> 100	
CSc1nc2nc(-c3ccccc3)[nH]c2c(=O)[nH]1	5.7	
CCc1nc(O)c2c[nH]nc2n1		> 100
CCCCCCSc1nc(N)c(NC=O)c(=O)[nH]1		> 100
CCCCCc1nc2n[nH]cc2c(=O)[nH]1		> 100
Oc1nc2nc3n(c(O)c-2n1)CCCS3	66.8	
CCCCOC(=O)C(=O)Nc1nc[nH]c1C(N)=O	1.06	4.29
CCCCCC(=O)Nc1nc[nH]c1C(N)=O	2.56	12.6
CCCCCCOC(=O)C(=O)Nc1nc[nH]c1C(N)=O	0.26	1.11
CCCCSc1nc(N)c(NC=O)c(=O)[nH]1		> 100
CCCCCCNc1nc(O)c2[nH]cnc2n1	32.1	30.5
O=c1[nH]c(=S)[nH]c2nc(-c3ccccc3)[nH]c12	2.07	
O=c1[nH]c2nc(SCc3ccccc3)[nH]c(=O)c2[nH]1	4.49	

Compound	Ki [µM]	IC50 [µM]
Oc1nc2nc3n(c(O)c-2n1)CCS3	40.3	
Oc1nc2nc(O)n3c(c-2n1)SCCC3	0.33	
CCCCCSc1nc(N)c(NC=O)c(=O)[nH]1		> 100
CCCCSc1nc2nc[nH]c2c(=O)[nH]1	0.176	3.88
Oc1c2nc(S)nc-2nc2n1CCS2	24.4	
CCCCCNc1nc2nc[nH]c2c(=O)[nH]1	25.7	28.3
Oc1nc2nc(-c3ccccc3)nc-2c2n1CCCS2	93	
CCCCCCSc1nc(O)c2[nH]c(O)nc2n1	0.16	
CCCCCCSc1nc2nc(-c3ccccc3)[nH]c2c(=O)[nH]1	0.48	
CCCCCOC(=O)C(=O)Nc1[nH]cnc1C(N)=O	1.04	1.92
CCCc1nc2n[nH]cc2c(=O)[nH]1		> 100
Oc1nc2nc(O)n3c(c-2n1)SCC3	1.26	
CCCCNc1nc(O)c2[nH]cnc2n1	17.7	25.5
CC1CSc2nc3nc(O)nc-3c(O)n2C1 (stereo not drawn)	> 100	
O=c1nc2[nH]c(=S)[nH]c2c2n1CCS2	1.86	
CCCCc1nc(O)c2c[nH]nc2n1		> 100
